Type in all cases: functional
One test has as its system Streptococcus pneumoniae. The test is described as follows: Inhibitory activity against Streptococcus pneumoniae UC9912.
In test [1] the test system is Mus musculus. The test is described as follows: Dose required to cure 50% of Staphylococcus aureus infected mice in the presence of eperezolid when orally administered; value ranges from 2.2-2.9. To be noted: po.
Test [2] concerns Mus musculus. The experiment in a line: Dose required to cure 50% of Staphylococcus aureus infected mice when orally administered; value ranges from 3.5-9.1. To be noted: po.
The subject of another test is Enterococcus faecalis. The test is described as follows: Inhibitory activity against Enterococcus faecalis UC9217.
Another test has as its system Haemophilus influenzae. The experiment in a line: Inhibitory activity against Haemophilus influenzae UC30063.
Another test has as its system Moraxella catarrhalis. The test is described as follows: Inhibitory activity against Moraxella catarrhalis UC30610.
The subject of test [3] is Staphylococcus epidermidis. The test is described as follows: Inhibitory activity against Methicillin-resistant Staphylococcus epidermidis UC12084.
Test [4] deals with Staphylococcus aureus. The test is described as follows: Inhibitory activity against Methicillin-resistant Staphylococcus aureus UC6685.
In test [5] the test system is Staphylococcus aureus. The experiment in a line: Inhibitory activity against Methicillin-susceptible Staphylococcus aureus UC9213.
For test [6], the system named is Mus musculus. The experiment in a line: Dose(orally administered) required to cure 50% of Staphylococcus aureus infected mice. As to conditions: po.
Test [7] concerns Mus musculus. The experiment in a line: Dose(orally administered) required to cure 50% of Staphylococcus aureus infected mice in the presence of eperezolid. To be noted: po.
The subject of test [8] is Mus musculus. The experiment in a line: Dose required to cure 50% of Staphylococcus aureus infected mice when orally administered;value ranges from 3.1-7.8. To be noted: po.
The test system of test [9] is Mus musculus. The test is described as follows: Dose required to cure 50% of Staphylococcus aureus infected mice in the presence of vancomycin when administered orally. As to conditions: po.
Test [10] deals with Mus musculus. The experiment in a line: Dose required to cure 50% of Staphylococcus aureus infected mice when administered orally. As to conditions: po.
The test system of test [11] is Mus musculus. The test is described as follows: Dose required to cure 50% of Staphylococcus aureus infected mice in the presence of eperezolid when administered orally. As to conditions: po.
Test [12] has as its system Mus musculus. The experiment in a line: Dose required to cure 50% of Staphylococcus aureus infected mice in the presence of eperezolid when orally administered; value ranges from 0.1-6.6. To be noted: po.
Test [13] has as its system Mus musculus. The experiment in a line: Dose required to cure 50% of Staphylococcus aureus infected mice when orally administered; value ranges 1.1-2.7. As to conditions: po.
Test [14] has as its system Mus musculus. The test is described as follows: Dose(orally administered) required to cure 50% of Staphylococcus aureus infected mice in the presence of eperezolid when administered orally; value ranges from 0.8-2.3. To be noted: po.
Test [15] has as its system Mus musculus. The experiment in a line: Dose required to cure 50% of Staphylococcus aureus infected mice when administered orally. As to conditions: po.
Test [16] deals with Mus musculus. The test is described as follows: Dose required to cure 50% of Staphylococcus aureus infected mice in the presence of eperezolid when administered orally; value ranges from 1.8-7.0. To be noted: po.
Test [17] deals with Mus musculus. The test is described as follows: Dose required to cure 50% of Staphylococcus aureus infected mice when aministered orally; value ranges from 0.8-2.0. To be noted: po.
The subject of test [18] is Mus musculus. The experiment in a line: Dose required to cure 50% of Staphylococcus aureus infected mice in the presence of eperezolid when orally administered; value ranges from 1.1-2.8. As to conditions: po.
The subject of test [19] is Mus musculus. The experiment in a line: Dose required to cure 50% of Staphylococcus aureus infected mice when orally administered. As to conditions: po.
In test [20] the test system is Mus musculus. The test is described as follows: Dose required to cure 50% of Staphylococcus aureus infected mice in the presence of vancomycin when administered orally; value ranges from 1.43-3.5. As to conditions: po.
The subject of test [21] is Mus musculus. The test is described as follows: Dose required to cure 50% of Staphylococcus aureus infected mice when administered orally; value ranges from 5.5-22.1. As to conditions: po.
Test [22] relates to Mus musculus. The test is described as follows: Dose required to cure 50% of Staphylococcus aureus infected mice when administered orally;. As to conditions: po.
Test [23] concerns Mus musculus. The test is described as follows: Dose required to cure 50% of Staphylococcus aureus infected mice in the presence of eperezolid when administered orally; vlue ranges from 1.1-2.8. As to conditions: po.

Molecules are shown by their SMILES. Converted amounts (≈) assume the structure as drawn.

In general, ED50 refers to the dose that gives a 50% effect, or the effect in half of the subjects. In the test on Streptococcus pneumoniae, `CC(=O)NC[C@H]1CN(c2ccc(-n3ccc(/C=N\O)c3)c(F)c2)C(=O)O1` had an MIC of no more than 0.125 µg/mL. In addition, the values for the ED50 in the test on Mus musculus [1] and in the test on Mus musculus [2] were 2.6 mg/kg/day and 5.5 mg/kg/day, respectively.

For `CC(=O)NC[C@H]1CN(c2ccc(-n3cc(C=O)nn3)c(F)c2)C(=O)O1`, the MIC is 0.5 µg/mL (≈ 1.44 µM) with Enterococcus faecalis; 4 µg/mL (≈ 11.5 µM) against Haemophilus influenzae; 2 µg/mL (≈ 5.76 µM) in the test on Moraxella catarrhalis; 0.25 µg/mL (≈ 0.72 µM) with Streptococcus pneumoniae; less than 0.125 µg/mL in test [3]; 0.25 µg/mL (≈ 0.72 µM) in the test on Staphylococcus aureus [4]. The MIC against Staphylococcus aureus [5] was 0.5 µg/mL (≈ 1.44 µM). Moreover, the ED50 was greater than 20 mg/kg/day in the test on Mus musculus [6] and 1.1 mg/kg/day with Mus musculus [7].

As to `CC(=O)NC[C@H]1CN(c2ccc(-n3ccnn3)c(F)c2)C(=O)O1`, the MIC against Enterococcus faecalis is 1 µg/mL (≈ 3.13 µM); with Haemophilus influenzae it was 4 µg/mL (≈ 12.5 µM); with Moraxella catarrhalis, 2 µg/mL (≈ 6.26 µM); in the test on Streptococcus pneumoniae it was no more than 0.5 µg/mL; in [3], no more than 0.5 µg/mL; against Staphylococcus aureus [4], 1 µg/mL (≈ 3.13 µM). Further, in the test with Staphylococcus aureus [5], the MIC turned out to be 1 µg/mL (≈ 3.13 µM). Besides, the ED50 with Mus musculus [8] turned out to be 4.7 mg/kg/day; with Mus musculus [9], 2 mg/kg/day.

`COC(=O)c1cn(-c2ccc(N3C[C@H](CNC(C)=O)OC3=O)cc2F)nn1`: the MIC in the test with Enterococcus faecalis is 4 µg/mL (≈ 10.6 µM); in the test with Haemophilus influenzae, greater than 16 µg/mL; with Moraxella catarrhalis, 16 µg/mL (≈ 42.4 µM); in the test on Streptococcus pneumoniae, 1 µg/mL (≈ 2.65 µM); in test [3], 2 µg/mL (≈ 5.3 µM); against Staphylococcus aureus [4] it was 4 µg/mL (≈ 10.6 µM). Besides, the MIC in the test with Staphylococcus aureus [5] was 4 µg/mL (≈ 10.6 µM). In addition, the results for the ED50 in the test with Mus musculus [10] and in the test with Mus musculus [11] were greater than 20 mg/kg/day and 15.3 mg/kg/day, respectively.

In the case of `CC(=O)NC[C@H]1CN(c2ccc(-n3ccc(C#N)c3)c(F)c2)C(=O)O1`, the MIC (in the test with Streptococcus pneumoniae; in test [3]) was no more than 0.125 µg/mL in each case. The figures for the ED50 in the test on Mus musculus [12] and in the test on Mus musculus [13] were 4 mg/kg/day and 1.9 mg/kg/day, respectively.

For `CC(=O)NC[C@H]1CN(c2ccc(-n3ccc(CCCNS(C)(=O)=O)c3)c(F)c2)C(=O)O1`, the MIC against Enterococcus faecalis was 2 µg/mL (≈ 4.42 µM); in the test on Haemophilus influenzae, greater than 16 µg/mL; in the test with Moraxella catarrhalis, 8 µg/mL (≈ 17.7 µM); in the test with Streptococcus pneumoniae, 0.5 µg/mL (≈ 1.1 µM); in [3], 2 µg/mL (≈ 4.42 µM); against Staphylococcus aureus [4] it was 4 µg/mL (≈ 8.84 µM). In the test with Staphylococcus aureus [5], this compound gave an MIC of 8 µg/mL (≈ 17.7 µM). Moreover, the ED50 was 1.8 mg/kg/day in the test with Mus musculus [14] and greater than 20 mg/kg/day in the test on Mus musculus [15].

With `CC(=O)NC[C@H]1CN(c2ccc(-n3cc(C#N)cn3)c(F)c2)C(=O)O1`, the MIC in the test with Streptococcus pneumoniae is no more than 0.125 µg/mL; in [3] it was 0.25 µg/mL (≈ 0.728 µM). Moreover, the ED50 in the test with Mus musculus [16] stood at 3.3 mg/kg/day; in the test on Mus musculus [17], 1.2 mg/kg/day.

Regarding `CC(=O)NC[C@H]1CN(c2ccc(-n3cccn3)c(F)c2)C(=O)O1`, the MIC amounted to 2 µg/mL (≈ 6.28 µM) in the test on Enterococcus faecalis; 32 µg/mL (≈ 101 µM) against Haemophilus influenzae; 16 µg/mL (≈ 50.3 µM) against Moraxella catarrhalis; 1 µg/mL (≈ 3.14 µM) against Streptococcus pneumoniae; 1 µg/mL (≈ 3.14 µM) in test [3]; 2 µg/mL (≈ 6.28 µM) against Staphylococcus aureus [4]. In the test on Staphylococcus aureus [5], this compound had an MIC of 2 µg/mL (≈ 6.28 µM). The ED50 with Mus musculus [18] is 1.8 mg/kg/day; in the test with Mus musculus [19], greater than 20 mg/kg/day.

Take `CC(=O)NC[C@H]1CN(c2ccc(-n3ccnc3)c(F)c2)C(=O)O1`: the MIC in the test on Enterococcus faecalis was 2 µg/mL (≈ 6.28 µM); with Haemophilus influenzae, 8 µg/mL (≈ 25.1 µM); in the test with Moraxella catarrhalis it was 4 µg/mL (≈ 12.6 µM); against Streptococcus pneumoniae, no more than 0.5 µg/mL; in [3], no more than 0.5 µg/mL; with Staphylococcus aureus [4], 1 µg/mL (≈ 3.14 µM). Also, in the test on Staphylococcus aureus [5], the MIC is 2 µg/mL (≈ 6.28 µM). Also, the ED50 in the test with Mus musculus [20] worked out at 2.2 mg/kg/day; with Mus musculus [21], 9.5 mg/kg/day.

Take `CC(=O)NC[C@H]1CN(c2ccc(-n3cnnc3)c(F)c2)C(=O)O1`: the MIC was 8 µg/mL (≈ 25.1 µM) against Enterococcus faecalis; greater than 16 µg/mL in the test with Haemophilus influenzae; 8 µg/mL (≈ 25.1 µM) in the test with Moraxella catarrhalis; 1 µg/mL (≈ 3.13 µM) with Streptococcus pneumoniae; 4 µg/mL (≈ 12.5 µM) in test [3]; 8 µg/mL (≈ 25.1 µM) against Staphylococcus aureus [4]. This compound also had an MIC in the test on Staphylococcus aureus [5] of 16 µg/mL (≈ 50.1 µM). The ED50 with Mus musculus [22] is greater than 20 mg/kg/day; in the test on Mus musculus [23], 2 mg/kg/day.

For the origin of these results see ChEMBL document CHEMBL1132968, “Substituent effects on the antibacterial activity of nitrogen-carbon-linked (azolylphenyl)oxazolidinones with expanded activity against the fastidious gram-negative organisms Haemophilus influenzae and Moraxella catarrhalis” (2000).
